According to US20040127403A1, “Methods for treating and preventing Gram-positive bacteremias” (priority 2002, published 2004):
≈ marks a conversion by molar mass, not a printed value. Read-outs that look alike come from different tables or passages of the source.

What was measured:
[1] = system: E. faecium A4192 Syn-R; experiment: MIC, NCCLS broth microdilution; assay type: cell-based; conditions: Enterococcus faecium, A4192SYNR
In short: (§1)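 NCCLS broth microdilution MICs determined in both cation-adjusted Mueller-Hinton broth and trypticase soy broth. Media containing ramoplanin supplemented with 0.02% BSA to prevent binding to plastic.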

[2] = system: S. aureus ATCC19636 MSSA; experiment: MIC, NCCLS broth microdilution; assay type: cell-based; conditions: Staphylococcus aureus
In short: as §1

[3] = system: E. faecium ATCC700221; experiment: MIC, NCCLS broth microdilution; assay type: cell-based; conditions: Enterococcus faecium, ATCC700221, E. faecium ATCC700221
In short: as §1

[4] = system: S. aureus ATCC27660 MSSA; experiment: MIC, NCCLS broth microdilution; assay type: cell-based; conditions: Staphylococcus aureus
In short: as §1

[5] = system: S. aureus ATCC35556 MRSA; experiment: MIC, NCCLS broth microdilution; assay type: cell-based; conditions: Staphylococcus aureus
In short: as §1

[6] = system: E. faecium A6350 Line-R; experiment: MIC, NCCLS broth microdilution; assay type: cell-based; conditions: Enterococcus faecium, A6350LINER
In short: as §1

[7] = system: E. faecium A 6350 Line-R; experiment: MIC, NCCLS broth microdilution; assay type: cell-based
In short: as §1

[8] = system: VanA strain of E. faecium (VRE); experiment: Suppression of VRE in a mouse colonization model; assay type: in vivo, Mice
Procedure: Mice were colonized with a clinical isolate VanA strain of E. faecium (VRE) isolated from a septicemic patient. A single inoculation of 5×10^8 cfu VRE by oral gavage (Day 0) was followed by treatment with vancomycin in the drinking water to maintain colonization. On day 22, each group received the same vancomycin-containing drinking water. One group also received ramoplanin (100 μg/mL) in its drinking water. The dose of ramoplanin per day was estimated to be 15 mg/kg, based on a standard water consumption of 150 mL/kg/day. Treatment with ramoplanin was discontinued on Day 29, and vancomycin treatment was discontinued on Day 36. The control group consisted of five mice, while the ramoplanin group consisted of four mice.

[9] = Day 22, prior to ramoplanin therapy, control group, 25 mg/kg/day vancomycin
[10] = Day 22, prior to ramoplanin therapy, ramoplanin group, on 25 mg/kg/day vancomycin
[11] = Day 29, control group, 25 mg/kg/day vancomycin
[12] = Day 36, 7 days after completion of ramoplanin therapy, former ramoplanin group, on 25 mg/kg/day vancomycin
[13] = Day 36, control group, 25 mg/kg/day vancomycin

SMILES: CC(=O)NC[C@H]1CN(c2ccc(N3CCOCC3)c(F)c2)C(=O)O1 [Linezolid]
- MIC ([1]; Table 6, 1st, read-out: MIC): 4 µg/mL (≈ 11.9 µM)
- MIC ([1]; Table 6, 2nd, read-out: MIC): 2 µg/mL (≈ 5.93 µM)
- MIC ([2]; Table 6, 1st, read-out: MIC): 4 µg/mL (≈ 11.9 µM)
- MIC ([2]; Table 6, 2nd, read-out: MIC): 2 µg/mL (≈ 5.93 µM)
- MIC ([3]; Table 6, 1st, read-out: MIC): 4 µg/mL (≈ 11.9 µM)
- MIC ([3]; Table 6, 2nd, read-out: MIC): 2 µg/mL (≈ 5.93 µM)
- MIC ([4]; Table 6, 1st, read-out: MIC): 4 µg/mL (≈ 11.9 µM)
- MIC ([4]; Table 6, 2nd, read-out: MIC): 2 µg/mL (≈ 5.93 µM)
- MIC ([5]; Table 6, 1st, read-out: MIC): 4 µg/mL (≈ 11.9 µM)
- MIC ([5]; Table 6, 2nd, read-out: MIC): 2 µg/mL (≈ 5.93 µM)
- MIC ([6]; Table 6, 1st, read-out: MIC): 4 µg/mL (≈ 11.9 µM)
- MIC ([6]; Table 6, 2nd, read-out: MIC): 2 µg/mL (≈ 5.93 µM)

SMILES: COc1cccc(OC)c1C(=O)N[C@@H]1C(=O)N2[C@@H]1SC(C)(C)[C@@H]2C(=O)O [Meth., methicillin]
- MIC ([1]; Table 6, 1st, read-out: MIC): > 16 µg/mL
- MIC ([1]; Table 6, 2nd, read-out: MIC): > 64 µg/mL
- MIC ([2]; Table 6, 1st, read-out: MIC): 1 µg/mL (≈ 2.63 µM)
- MIC ([2]; Table 6, 2nd, read-out: MIC): 2 µg/mL (≈ 5.26 µM)
- MIC ([3]; Table 6, 1st, read-out: MIC): > 16 µg/mL
- MIC ([3]; Table 6, 2nd, read-out: MIC): > 64 µg/mL
- MIC ([4]; Table 6, 1st, read-out: MIC): 2 µg/mL (≈ 5.26 µM)
- MIC ([4]; Table 6, 2nd, read-out: MIC): 4 µg/mL (≈ 10.5 µM)
- MIC ([5]; Table 6, 1st, read-out: MIC): 1 µg/mL (≈ 2.63 µM)
- MIC ([5]; Table 6, 2nd, read-out: MIC): 1 µg/mL (≈ 2.63 µM)
- MIC ([6]; Table 6, 1st, read-out: MIC): > 16 µg/mL
- MIC ([6]; Table 6, 2nd, read-out: MIC): 64 µg/mL (≈ 168 µM)

SMILES: CN[C@H](CC(C)C)C(=O)N[C@H]1C(=O)N[C@@H](CC(N)=O)C(=O)N[C@H]2C(=O)N[C@H]3C(=O)N[C@H](C(=O)N[C@H](C(=O)O)c4cc(O)cc(O)c4-c4cc3ccc4O)[C@H](O)c3ccc(c(Cl)c3)Oc3cc2cc(c3O[C@@H]2O[C@H](CO)[C@@H](O)[C@H](O)[C@H]2O[C@H]2C[C@](C)(N)[C@H](O)[C@H](C)O2)Oc2ccc(cc2Cl)[C@H]1O [Vancomycin]
- MIC ([1]; CAMHB): > 16 µg/mL
- MIC ([1]; TSB): > 16 µg/mL
- MIC ([1]; Table 6, 1st): > 16 µg/mL
- MIC ([1]; Table 6, 2nd): > 64 µg/mL
- MIC ([2]; CAMHB): 2 µg/mL (≈ 1.38 µM)
- MIC ([2]; TSB): > 16 µg/mL
- MIC ([2]; Table 6, 1st): 1 µg/mL (≈ 0.69 µM)
- MIC ([2]; Table 6, 2nd): 1 µg/mL (≈ 0.69 µM)
- MIC ([7]; E. faecium A 6350 Line-R (Table 2), TSB): >16, >16 μg/ml
- MIC ([7]; Enterococcus faecium, A6350LINER): > 16 µg/mL
- MIC ([3]; CAMHB): > 16 µg/mL
- MIC ([3]; TSB): > 16 µg/mL
- MIC ([3]; Table 6, 1st): > 16 µg/mL
- MIC ([3]; Table 6, 2nd): > 64 µg/mL
- MIC ([4]; CAMHB): 2 µg/mL (≈ 1.38 µM)
- MIC ([4]; TSB): 2 µg/mL (≈ 1.38 µM)
- MIC ([4]; Table 6, 1st): 1 µg/mL (≈ 0.69 µM)
- MIC ([4]; Table 6, 2nd): 1 µg/mL (≈ 0.69 µM)
- MIC ([5]; CAMHB): 1 µg/mL (≈ 0.69 µM)
- MIC ([5]; TSB): > 16 µg/mL
- MIC ([5]; Table 6, 1st): 1 µg/mL (≈ 0.69 µM)
- MIC ([5]; Table 6, 2nd): 1 µg/mL (≈ 0.69 µM)
- MIC ([6]; CAMHB): 2 µg/mL (≈ 1.38 µM)
- MIC ([6]; TSB): 2 µg/mL (≈ 1.38 µM)
- MIC ([6]; Table 6, 1st): 1 µg/mL (≈ 0.69 µM)
- MIC ([6]; Table 6, 2nd): 1 µg/mL (≈ 0.69 µM)
- % Mice with VRE [8, 9]: 100%
- Enterococci in faeces: Total Enterococci [8, 9]: 9.6 log 10 cfu/g faeces
- Enterococci in faeces: VRE [8, 9]: 9.7 log 10 cfu/g faeces
- % Mice with VRE [8, 10]: 100%
- Enterococci in faeces: Total Enterococci [8, 10]: 9.8 log 10 cfu/g faeces
- Enterococci in faeces: VRE [8, 10]: 9.7 log 10 cfu/g faeces
- % Mice with VRE [8, 11]: 100%
- Enterococci in faeces: Total Enterococci [8, 11]: 9.3 log 10 cfu/g faeces
- Enterococci in faeces: VRE [8, 11]: 9.4 log 10 cfu/g faeces
- % Mice with VRE [8, 12]: 100%
- Enterococci in faeces: Total Enterococci [8, 12]: 8.6 log 10 cfu/g faeces
- Enterococci in faeces: VRE [8, 12]: 8.7 log 10 cfu/g faeces
- % Mice with VRE [8, 13]: 100%
- Enterococci in faeces: Total Enterococci [8, 13]: 9.6 log 10 cfu/g faeces
- Enterococci in faeces: VRE [8, 13]: 9.3 log 10 cfu/g faeces
